assay: Solubility Evaluation 1: solubility of host compounds in toluene; assay type: physicochemical; conditions: host compounds
Method: Solubility Evaluation 1 was conducted by the following method.
(§1) A hundred mg of each compound was placed in a sample pot and the toluene as the solvent was added until the compound was dissolved. The solubility in the toluene was obtained from an amount of the added toluene.

For `c1ccc(-c2ccc(-c3ccccc3-c3c4ccccc4c(-c4c5ccccc5c(-c5ccccc5-c5ccc(-c6ccccc6)cc5)c5ccccc45)c4ccccc34)cc2)cc1` [Compound H9], the “solubility in the toluene (in words)” value was “solubility capable of performing the thickness control of the films”.

same assay, conditions: in toluene; 100 mg compound, toluene added until dissolved

`c1cc(-c2ccc(-c3cccc4ccccc34)cc2)cc(-c2c3ccccc3c(-c3ccc(-c4cccc5ccccc45)cc3)c3ccccc23)c1` [Compound H2] and `c1ccc2cc(-c3ccc(-c4c5ccccc5c(-c5ccc(-c6cccc7ccccc67)cc5)c5ccccc45)cc3)ccc2c1` [Compound H1] are the same in “Solubility (%)” value: 2.0% for the first, 2.0% for the second.

Going from `c1cc(-c2ccc3ccccc3c2)cc(-c2c3ccccc3c(-c3ccc4cc(-c5ccc6ccccc6c5)ccc4c3)c3ccccc23)c1` [Compound H7] to `c1ccc2cc(-c3ccc4cc(-c5c6ccccc6c(-c6ccc(-c7cccc8ccccc78)cc6)c6ccccc56)ccc4c3)ccc2c1` [Compound H3], the “Solubility (%)” value rises from 0.25% to 2.0%.

Going from `c1ccc(-c2ccc(-c3c4ccccc4c(-c4ccccc4)c4ccccc34)cc2)cc1` [Compound H8] to `c1ccc2cc(-c3c4ccccc4c(-c4ccc(-c5cccc6ccccc56)cc4)c4ccccc34)ccc2c1` [Compound H4], the “Solubility (%)” value rises from 0.2% to 5.0%.

First: c1ccc(-c2ccc(-c3ccccc3-c3c4ccccc4c(-c4c5ccccc5c(-c5ccccc5-c5ccc(-c6ccccc6)cc5)c5ccccc45)c4ccccc34)cc2)cc1 [Compound H9]
Second: c1ccc(-c2cc(-c3ccc4ccccc4c3)cc(-c3c4ccccc4c(-c4ccc5ccccc5c4)c4ccccc34)c2)cc1 [Compound H5]
The “Solubility (%)” value of the first is lower: 1.4% for the first, 5.0% for the second.

For `c1cc(-c2ccc3ccccc3c2)cc(-c2c3ccccc3c(-c3cccc4ccccc34)c3ccccc23)c1` [Compound H6], the “Solubility (%)” value was 0.25%.

assay: Solubility Evaluation 2: solubility of dopant compounds in toluene; assay type: physicochemical; conditions: Table 2
Method: as §1

`Cc1ccc(N(c2ccc(C(C)C)cc2)c2c3ccccc3c(N(c3ccc(C)cc3)c3ccc(C(C)C)cc3)c3cc(C(C)(C)C)ccc23)cc1` [EM141] and `Cc1ccc(N(c2ccc(C(C)C)cc2)c2c3ccc(C(C)(C)C)cc3c(N(c3ccc(C)cc3)c3ccc(C(C)C)cc3)c3ccc(C(C)(C)C)cc23)cc1` [EM144] are the same in “Solubility (%)” value: 0.5% for the first, 0.5% for the second.

First: Cc1ccc(N(c2ccc(C)c(C)c2)c2c3ccc(C(C)(C)C)cc3c(N(c3ccc(C)c(C)c3)c3ccc(C)c(C)c3)c3ccc(C(C)(C)C)cc23)cc1C [EM145]
Second: Cc1cccc(N(c2ccc(C)c(C)c2)c2c3ccc(C(C)(C)C)cc3c(N(c3cccc(C)c3)c3ccc(C)c(C)c3)c3ccc(C(C)(C)C)cc23)c1 [EM147]
The “Solubility (%)” value of the first is lower: 0.5% for the first, 1% for the second.

`Cc1cccc(N(c2cccc(C)c2)c2c3ccc(C(C)C)cc3c(N(c3cccc(C)c3)c3cccc(C)c3)c3ccc(C(C)C)cc23)c1` [EM149] and `Cc1cccc(N(c2cccc(C(C)C)c2)c2c3ccc(C(C)(C)C)cc3c(N(c3cccc(C)c3)c3cccc(C(C)C)c3)c3ccc(C(C)(C)C)cc23)c1` [EM146] are the same in “Solubility (%)” value: 0.5% for the first, 0.5% for the second.

`Cc1ccc(N(c2ccc(C)cc2)c2c3ccccc3c(N(c3ccc(C)cc3)c3ccc(C)cc3)c3cc(C(C)(C)C)ccc23)cc1` [EM139] and `Cc1ccc(N(c2ccc(C)cc2)c2c3ccc(C(C)(C)C)cc3c(N(c3ccc(C)cc3)c3ccc(C)cc3)c3ccc(C(C)(C)C)cc23)cc1` [EM143] are the same in “Solubility (%)” value: 0.5% for the first, 0.5% for the second.

`CC(C)(C)c1ccc2c(N(c3ccc4ccccc4c3)c3ccc4ccccc4c3)c3cc(C(C)(C)C)ccc3c(N(c3ccc4ccccc4c3)c3ccc4ccccc4c3)c2c1` [EM148] and `CC(C)c1ccc2c(N(c3ccc(-c4ccccc4)cc3)c3ccc4ccccc4c3)c3cc(CC4CCCCC4)ccc3c(N(c3ccc(-c4ccccc4)cc3)c3ccc4ccccc4c3)c2c1` [EM136] are the same in “Solubility (%)” value: 0.5% for the first, 0.5% for the second.

Going from `CCC(C)c1ccc(N(c2ccccc2)c2c3ccc(C(C)C)cc3c(N(c3ccccc3)c3ccc(C(C)CC)cc3)c3ccc(CC(C)(C)C)cc23)cc1` (centres unmarked) [EM137] to `CC(C)c1ccc(N(c2ccccc2)c2c3ccc(C(C)(C)C)cc3c(N(c3ccccc3)c3ccc(C(C)C)cc3)c3ccc(C(C)(C)C)cc23)cc1` [EM142], the “Solubility (%)” value falls from 1% to 0.5%.

`Cc1ccc(N(c2ccc(C(C)C)cc2)c2c3ccccc3c(N(c3ccc(C)cc3)c3ccc(C(C)C)cc3)c3cc(C45CC6CC(CC(C6)C4)C5)ccc23)cc1` [EM176] and `CC(C)c1ccc(N(c2ccccc2)c2c3ccccc3c(N(c3ccccc3)c3ccc(C(C)C)cc3)c3cc(C45CC6CC(CC(C6)C4)C5)ccc23)cc1` [EM177] are the same in “Solubility (%)” value: 0.5% for the first, 0.5% for the second.

`Cc1ccc(N(c2ccc(C)cc2)c2c3ccc(C4CCCCC4)cc3c(N(c3ccc(C)cc3)c3ccc(C)cc3)c3ccc(C(C)C)cc23)cc1` [EM138] and `Cc1ccc(N(c2ccc(C(C)(C)C)cc2)c2c3ccccc3c(N(c3ccc(C)cc3)c3ccc(C(C)(C)C)cc3)c3cc(C(C)C)ccc23)cc1` [EM140] are the same in “Solubility (%)” value: 0.5% for the first, 0.5% for the second.

`c1ccc(N(c2ccc3ccccc3c2)c2c3ccccc3c(N(c3ccccc3)c3ccc4ccccc4c3)c3cc(C4CCCCC4)ccc23)cc1` [EM174] and `Cc1cccc(N(c2cccc(C)c2)c2c3ccccc3c(N(c3cccc(C)c3)c3cccc(C)c3)c3cc(C4CC5CCC4C5)ccc23)c1` (centres unmarked) [EM175] are the same in “Solubility (%)” value: 0.5% for the first, 0.5% for the second.

same assay, conditions: Table 3

Compared with `Cc1ccc(N(c2ccc(C(C)C)cc2)c2cc3c4ccccc4c(N(c4ccc(C)cc4)c4ccc(C(C)C)cc4)cc3c3ccccc23)cc1` [EM213], `CC(C)c1ccc(N(c2ccc(C(C)C)cc2)c2cc3c4ccccc4c(N(c4ccc(C(C)C)cc4)c4ccc(C(C)C)cc4)cc3c3ccccc23)cc1` [EM212] is higher in “Solubility (%)” value: 0.5% for the first, 1% for the second.

First: CC(C)c1ccc(N(c2ccc(C(C)C)cc2)c2c3ccccc3c(N(c3ccc(C(C)C)cc3)c3ccc(C(C)C)cc3)c3ccccc23)cc1 [EM204]
Second: Cc1ccc(N(c2ccc(C(C)C)cc2)c2c3ccccc3c(N(c3ccc(C(C)C)cc3)c3ccc(C(C)C)cc3)c3c2ccc2ccccc23)cc1 [EM211]
The “Solubility (%)” value of the first is lower: 0.5% for the first, 1% for the second.

`Cc1ccc(N(c2ccc(C(C)C)cc2)c2c3ccccc3c(-c3c4ccccc4c(N(c4ccc(C)cc4)c4ccc(C(C)C)cc4)c4cc(C(C)(C)C)ccc34)c3ccc(C(C)(C)C)cc23)cc1` [EM209] and `CC(C)c1ccc(N(c2ccc(C(C)(C)C)cc2)c2c3ccccc3c(N(c3ccc(C(C)C)cc3)c3ccc(C(C)(C)C)cc3)c3ccccc23)cc1` [EM205] are the same in “Solubility (%)” value: 0.5% for the first, 0.5% for the second.

Compared with `c1ccc(-c2cc(N(c3ccc(C4CCCCC4)cc3)c3cc4ccccc4c4ccccc34)c3cc(-c4ccccc4)cc(N(c4ccc(C5CCCCC5)cc4)c4cc5ccccc5c5ccccc45)c3c2)cc1` [EM192], `CC(C)c1ccc(N(c2cccc(-c3ccccc3)c2)c2c3ccccc3c(-c3c4ccccc4c(N(c4ccc(C(C)C)cc4)c4cccc(-c5ccccc5)c4)c4ccccc34)c3ccccc23)cc1` [EM207] is lower in “Solubility (%)” value: 1% for the first, 0.5% for the second.

Compared with `CC(C)c1ccc(N(c2ccc3ccccc3c2)c2ccc3ccc4c(N(c5ccc(C(C)C)cc5)c5ccc6ccccc6c5)ccc5ccc2c3c54)cc1` [EM194], `Cc1ccc(N(c2ccc(C(C)C)cc2)c2ccc3ccc4c(N(c5ccc(C)cc5)c5ccc(C(C)C)cc5)ccc5ccc2c3c54)cc1` [EM193] is lower in “Solubility (%)” value: 1% for the first, 0.5% for the second.

First: Cc1cc(C)cc(N(c2ccc(C(C)C)cc2)c2ccc3ccc4c(N(c5ccc(C(C)C)cc5)c5cc(C)cc(C)c5)ccc5ccc2c3c54)c1 [EM195]
Second: Cc1cc(C)cc(N(c2ccc(C(C)C)cc2)c2cc3c4ccccc4c(N(c4ccc(C(C)C)cc4)c4cc(C)cc(C)c4)cc3c3ccccc23)c1 [EM215]
The “Solubility (%)” value of the first is lower: 0.5% for the first, 1% for the second.

`CC(C)c1ccc(N(c2cccc(C(C)(C)C)c2)c2cc3c4ccccc4c(N(c4ccc(C(C)C)cc4)c4cccc(C(C)(C)C)c4)cc3c3ccccc23)cc1` [EM214] and `CC(C)c1ccc(N(c2ccc(C(C)(C)C)cc2)c2ccc3ccc4c(N(c5ccc(C(C)C)cc5)c5ccc(C(C)(C)C)cc5)ccc5ccc2c3c54)cc1` [EM197] are the same in “Solubility (%)” value: 1% for the first, 1% for the second.

Going from `CCC(C)c1ccc(N(c2ccc(-c3ccccc3)cc2)c2ccc(N(c3ccc(-c4ccccc4)cc3)c3ccc(C(C)CC)cc3)c3ccccc23)cc1` (centres unmarked) [EM191] to `CCc1ccc(N(c2ccc(C(C)CC)cc2)c2c3ccccc3c(-c3c4ccccc4c(N(c4ccc(CC)cc4)c4ccc(C(C)CC)cc4)c4ccccc34)c3ccccc23)cc1` (centres unmarked) [EM206], the “Solubility (%)” value falls from 1% to 0.5%.

`Cc1cc(C)cc(N(c2ccc(C(C)C)cc2)c2c3ccccc3c(-c3c4ccccc4c(N(c4ccc(C(C)C)cc4)c4cc(C)cc(C)c4)c4ccccc34)c3ccccc23)c1` [EM208] and `Cc1ccc(N(c2ccc(C(C)C)cc2)c2c3ccccc3c(N(c3ccc(C)cc3)c3ccc(C(C)C)cc3)c3c2ccc2ccccc23)cc1` [EM210] are the same in “Solubility (%)” value: 1% for the first, 1% for the second.

For `CC(C)c1ccc(N(c2ccc(C(C)C)cc2)c2ccc3ccc4c(N(c5ccc(C(C)C)cc5)c5ccc(C(C)C)cc5)ccc5ccc2c3c54)cc1` [EM196], the “Solubility (%)” value was 1%.

same assay, conditions: Table 4

`CCC(C)c1ccc(N(c2ccc(/C=C/c3ccc(/C=C/c4ccc(N(c5ccc(C(C)CC)cc5)c5ccc(C(C)CC)cc5)cc4)cc3)cc2)c2ccc(C(C)CC)cc2)cc1` (centres unmarked) [Compound D1] and `Cc1ccc(N(c2ccc(C(C)C)cc2)c2c3ccccc3c(N(c3ccc(C)cc3)c3ccc(C(C)C)cc3)c3cc(C45CC6CC(CC(C6)C4)C5)ccc23)cc1` [EM176] are the same in “Solubility (%)” value: 0.5% for the first, 0.5% for the second.

`CC(C)c1ccc(N(c2ccccc2)c2c3ccccc3c(N(c3ccccc3)c3ccc(C(C)C)cc3)c3cc(C45CC6CC(CC(C6)C4)C5)ccc23)cc1` [EM177] and `Cc1cccc(N(c2cccc(C)c2)c2c3ccccc3c(N(c3cccc(C)c3)c3cccc(C)c3)c3cc(C4CC5CCC4C5)ccc23)c1` (centres unmarked) [EM175] are the same in “Solubility (%)” value: 0.5% for the first, 0.5% for the second.

In the case of `c1ccc(N(c2ccccc2)c2c3ccccc3c(N(c3ccccc3)c3ccccc3)c3ccccc23)cc1` [Compound D3, reference compound], the “Solubility (%)” value is reported as less than 0.1%.
For `Cc1ccc(N(c2ccc(C)cc2)c2ccc(/C=C/c3ccc(/C=C/c4ccc(N(c5ccc(C)cc5)c5ccc(C)cc5)cc4)cc3)cc2)cc1` [Compound D4, reference compound], the “Solubility (%)” value was less than 0.1%.
